Data published in patent US12370143B2, “Compound or salt thereof and lipid particles” (FUJIFILM Corporation, priority 2018, dated 2025).

Assays:
[1] = Particle size of lipid particles (no nucleic acid); type: physicochemical; conditions: lipid particles without nucleic acid; compound/DSPC/cholesterol/DMG-PEG2000 molar ratio 50/10/38.5/1.5; ELS-Z2
Procedure: The compounds described in Examples 1, 9, and 10,1,2-distearoyl-sn-glycero-3-phosphocholine (trade name: COATSOME® MC-8080; NOF corporation), cholesterol (trade name: Cholesterol HP; NIPPON FINE CHEMICAL CO., LTD.), and 1,2-dimyristoyl-rac-glycero-3-(methylpolyoxyethylene 2000) (hereinafter, called DMG-PEG2000) (trade name: SUNBRIGHT® GM-020; NOF corporation) were dissolved in ethanol at a molar ratio of 50/10/38.5/1.5 such that the total lipid concentration became 20 mmol/L, thereby obtaining an oil phase.
A 10 mmol/L acetate buffer having a pH of 4 was used as a water phase and mixed with the oil phase by a micromixer (see JP5288254B) using a syringe pump such that the volume ratio of water phase:oil phase became 6.7:3.3. The mixed solution was diluted 2× with a phosphate buffered saline (PBS), thereby obtaining a dispersion liquid of lipid particles. The dispersion liquid was dialyzed using a dialysis cassette (Slide-A-Lyzer G2, MWCO: 10 kD, Thermo Fisher Scientific) including PBS such that ethanol was removed, thereby obtaining lipid particles containing the compounds described in Examples 1, 9, and 10.
By using the dispersion liquid of lipid particles as it was, the particle size of the lipid particles was measured using a zeta potential/particle size measurement system ELS-Z2 (Otsuka Electronics Co., Ltd.).

[2] = Particle size of nucleic acid lipid particles (Luc2-siRNA); type: physicochemical; conditions: compound/DSPC/cholesterol/DMG-PEG2000 50/10/38.5/1.5
Summary of the method: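 Particle size was read by ELS-Z2 light scattering on nucleic acid lipid particles after dialysis against PBS. These were made by micromixing Luc2-siRNA (19.7 μmol/L, pH 4 acetate) with ethanolic lipids (test lipid/DSPC/cholesterol/DMG-PEG2000 50/10/38.5/1.5, 20 mmol/L) at 3:1 water:oil, siRNA/lipid 339 mol/mol.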

[3] = Encapsulation rate of siRNA in nucleic acid lipid particles (Luc2-siRNA); type: physicochemical; conditions: compound/DSPC/cholesterol/DMG-PEG2000 50/10/38.5/1.5
Summary of the method: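 Encapsulation rate was calculated as (total − outer-phase siRNA)/total ×100. Total siRNA was quantified spectrophotometrically after lipid-dissolving ethanol precipitation, and unencapsulated siRNA by RiboGreen in TE (ex 485/em 535 nm). The particles were test lipid/DSPC/cholesterol/DMG-PEG2000 at 50/10/38.5/1.5, formed by microfluidic mixing with Luc2-siRNA at pH 4 and dialyzed against PBS.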

[4] = tested on: DMS273 cells constantly expressing Luc; test: Target reporter protein (Luc) knockdown in cell, reporter protein assay; type: cell-based; conditions: Homo sapiens, DMS-273; Luc2-siRNA lipid particles using the compound; siRNA 0.1 to 100 nmol/L; concentration at which Luc expression is knocked down to 50%; read-out: IC50
Summary of the method: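 Nucleic acid lipid particles added at final 0.1 to 100 nmol/L to DMS273 human SCLC cells stably expressing Luc2, 24 hr exposure then 24 hr further culture after medium change. Luc quantified by Steady Glo luminescence after viable cell count; knockdown efficiency calculated and IC50 taken as concentration giving 50% Luc reduction.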

[5] = tested on: Factor VII (FVII) protein; test: Measurement of Factor VII (FVII) protein in mouse plasma after FVII-siRNA lipid particles; type: in vivo, C57BL6/J mice; conditions: 0.1 mg/kg caudal vein, plasma 24 hours after administration, PBS group = 100%
Summary of the method: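 C57BL6/J mice (n=3) received FVII-siRNA nucleic acid lipid particles at 0.1 mg/kg into the tail vein; controls got PBS. Each value is the percentage of the PBS-group FVII level.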

[6] = Particle size of nucleic acid lipid particles (FVII-siRNA); type: physicochemical
Summary of the method: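 Lipid particles formed by micromixing ethanolic ionizable lipid/DSPC/cholesterol/DMG-PEG2000 (50/10/38.5/1.5 mol) with siRNA in pH 4 acetate buffer (3:1 water:oil), diluted with PBS and dialysed against PBS.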

[7] = Nucleic acid encapsulation rate of nucleic acid lipid particles (FVII-siRNA); type: physicochemical
Summary of the method: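 Total nucleic acid was measured by adding 30 μL of 3 mol/L sodium acetate and 9 μL of glycogen to 60 μL of FVII-siRNA lipid particles, then precipitating with 1.5 mL ethanol, centrifuging, air-drying, redissolving in water, and reading on a Nanodrop. Outer-phase nucleic acid came from a RiboGreen assay (ex 485 nm, em 535 nm) on samples diluted 10,000× in 1×TE. Encapsulation (%) = (total − outer)/total × 100.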

| SMILES | Particle size (nm) [1] [nm] | Particle size (nm) [2] [nm] | Nucleic acid encapsulation rate [3] [%] | IC50 [4] [µM] | Particle size (nm) [6] [nm] | Nucleic acid encapsulation rate [7] [%] | Relative amount of FVII protein (%) [5] [%] |
| --- | --- | --- | --- | --- | --- | --- | --- |
| CCCCCCCCCCCCCCCCN(CCCCCCCCCCCCCCCC)C(=O)OCCN(C)CCN(C)C [Example 10, 2-((2-(Dimethylamino)ethyl)(methyl)amino)ethyl dihexadecylcarbamate] | 111.2 | 159.9 | 80 | – | – | – | – |
| CCCCCCCC(=O)OCCN(CCOC(=O)OC(CCCCCC)CCCCCCCCC(=O)OCC(CCCCC)CCCCC)CCN(CC)CC (centres unmarked) [Example 129, 2-Pentylheptyl 3-ethyl-12-hexyl-6-(2-(octanoyloxy)ethyl)-10-oxo-9,11-dioxa-3,6-diazahenicosan-21-oate] | – | 70.2 | 63 | 0.041 | 76.4 | 58 | 4 |

Further compounds by falling IC50 [4], results first:

| Particle size (nm) [1] [nm] | Particle size (nm) [2] [nm] | Nucleic acid encapsulation rate [3] [%] | IC50 [4] [µM] | Particle size (nm) [6] [nm] | Nucleic acid encapsulation rate [7] [%] | SMILES | Relative amount of FVII protein (%) [5] [%] |
| --- | --- | --- | --- | --- | --- | --- | --- |
| 127.5 | 79.5 | 92 | 0.021 | – | – | CCCCC/C=C\C/C=C\CCCCCCCCN(CCCCCCCC/C=C\C/C=C\CCCCC)C(=O)OCCNCCN [Example 9, 2-((2-aminoethyl)amino)ethyl di((9Z,12Z)-octadeca-9,12-dien-1-yl)carbamate] | – |
| – | 69.5 | 83 | 0.019 | 80.7 | 84 | CCCCCCCOC(=O)CCN(CCOC(=O)OC(CCCCCC)CCCCCCCCC(=O)OCC(CCCC)CCCCCC)CCN(CC)CC (centres unmarked) [Example 122, 2-Butyloctyl 3-ethyl-6-(3-(heptyloxy)-3-oxopropyl)-12-hexyl-10-oxo-9,11-dioxa-3,6-diazahenicosan-21-oate] | 3 |
| 145.9 | 66.4 | 84 | 0.013 | – | – | CCCCC/C=C\C/C=C\CCCCCCCCN(CCCCCCCC/C=C\C/C=C\CCCCC)C(=O)OCCN(C)CCN(C)C [Example 1, 2-((2-(dimethylamino)ethyl)(methyl)amino)ethyl di((9Z,12Z)-octadeca-9,12-dien-1-yl)carbamate] | – |
